Test results reported in ChEMBL document CHEMBL1147333, “Brominated indole alkaloids from the marine tunicate Pseudodistoma arborescens” (J Nat Prod, 1993).
Values after ≈ are worked out from the molar mass of the structure shown.

Test system: KB
Experiment: Cytotoxicity against human KB cells
Assay type: functional, cell-based

Molecule `CN1CCc2c3n(c4cc(Br)ccc24)[C@H](O)CCC[C@@H]31` [ARBORESCIDINE D] has an IC50 of 3 µg/mL (≈ 8.95 µM).
